According to patent publication US20160002250A1, “POLYMORPHS AND SALTS OF A COMPOUND” (FORUM Pharmaceuticals Inc., priority 2013, published 2016):
≈ marks a conversion by molar mass, not a printed value. Entries after “also recorded” stand apart in the source; their conditions may differ. Marks after values point to notes of the source that are not given here.

How the values were obtained:
[1] = Stability of amorphous material at room and elevated humidity conditions; assay type: physicochemical
Procedure: A DSC experiment was performed to assess the possibility of preparing amorphous material by melting and quench cooling. A sample of Form 1 (˜1 mg) was heated to 200° C. until it melted, then quickly cooled down to −80° C. and re-heated at 10° C./min. […] The crystalline Form 1 then melted at 184° C.
The experiment was repeated on a larger scale (batches of ˜60 mg) on the TGA instrument, and the resulting glasses were used as input materials for maturation experiments. Samples were also stored at elevated humidity conditions for re-analysis by XRPD after 24 h.

[2] = Gravimetric Vapour Sorption (GVS); assay type: physicochemical; conditions: for Form change by XRPD during GVS: RH 0% to 90%; for GVS water uptake (% of mass): RH from 0% to 90%, 25° C.
Procedure: Sorption isotherms were obtained using a SMS DVS Intrinsic moisture sorption analyzer, controlled by DVS Intrinsic Control software v1.0.0.30. The sample temperature was maintained at 25° C. by the instrument controls. The humidity was controlled by mixing streams of dry and wet nitrogen, with a total flow rate of 200 ml/min. The relative humidity was measured by a calibrated Rotronic probe (dynamic range of 1.0-100% RH), located near the sample. The weight change, (mass relaxation) of the sample as a function of % RH was constantly monitored by the microbalance (accuracy ±0.005 mg).
Typically 5-30 mg of sample was placed in a tared mesh stainless steel basket under ambient conditions. The sample was loaded and unloaded at 40% relative humidity (RH) and 25° C. (typical room conditions). A moisture sorption isotherm was performed as outlined below in Table 4 (2 scans giving 1 complete cycle). The standard isotherm was performed at 25° C. at 10% RH intervals over a 0-90% RH range. Data analysis was undertaken in Microsoft Excel using DVS Analysis Suite. The sample was recovered after completion of the isotherm and re-analyzed by XRPD.

[3] = Storage at elevated humidity; assay type: physicochemical; conditions: for Change in XRPD pattern on storage: seven days
Procedure: Samples were place on a glass slide and sealed in an airtight plastic container, along with an open beaker of saturated aqueous salt solution, and stored at a known regulated temperature. A saturated solution of NaCl was used to obtain a relative humidity of 75% at 40° C., whilst a saturated solution of potassium nitrate was used to provide 92% RH at 25° C.

[4] = Thermodynamic aqueous solubility; conditions: for solubility thermodynamic at 24 h: 25 °C, thermodynamic from solid; for Thermodynamic solubility: 25° C.
Procedure: The suspension was equilibrated at 25° C. for 24 hours then the pH was measured and adjusted with either HCl or NaOH if it deviated by more than 0.3 units from the target pH. The suspension was then filtered through a glass fiber C filter. […] Different volumes of the standard, diluted and undiluted sample solutions were injected.
Analysis was performed on an Agilent HP1100 series system equipped with a diode array detector and using ChemStation software. The following buffers were prepared to carry out the solubility analyses:
pH 1.2—made up by adding 85.0 mL of 0.2M HCl(aq) to 50 mL of 0.2M KCl(aq) and making up to 200 mL. pH 4.5—made up by adding 2.99 g of NaC2H3O2.3H2O to 14.0 mL of 2N AcOH(aq) and making up to 1000 mL. pH 7.4—made up adding 39.1 mL of 0.2M NaOH(aq) to 50.0 mL of a 0.2M KH2PO4 and making up to 200 mL.

[5] = Six-week stability study (elevated humidity, 60° C., room conditions); assay type: physicochemical; conditions: for Stability to elevated humidity and air oxidation: 60° C. and ambient conditions, XRPD, HPLC, 1H-NMR; for Stability to humidity: elevated humidity and temperature conditions
Procedure: The stability to elevated humidity and air oxidation was investigated for both Form 1 and Form 2 of the Free Base. Samples of both materials were stored at 40° C./75% RH, 25° C./96% RH, 60° C. in contact with air and ambient conditions (25° C. in contact with air) for six weeks, and analyses by XRPD, HPLC and ^1H-NMR (for oxidation study samples only) were carried out weekly.

[6] = Solubility in solvents, slow cooling and evaporation experiments; assay type: physicochemical; conditions: 50° C.
Procedure: 4-(4-(imidazo[1,2-b]pyridazin-2-ylmethoxy)phenyl)-2,2-dimethyl-5-(pyridin-4-yl)furan-3(2H)-one (Form 2 or Form 1; ca. 10 mg per experiment) was weighed into vials, and the stated solvents were added, in increasing portions at 50° C. With each addition, the vials were allowed to shake for ˜20 minutes. Any solutions observed were allowed to cool to room temperature. Those experiments that remained as solutions were pin-holed to allow the solvent to slowly evaporate. Any suspensions observed were subjected to heat/cool cycles, between room temperature and 50° C., four hours at each condition.

[7] = 25° C./96% RH, Week 5, samples run after 24 hours in solution
[8] = 40° C./75% RH, 25° C./96% RH, six weeks
[9] = 40° C./75% RH, Week 5, samples run after 24 hours in solution
[10] = 60° C., Week 5, samples run after 24 hours in solution
[11] = Room conditions, Week 5, samples run after 24 hours in solution

CC1(C)OC(c2ccncc2)=C(c2ccc(OCc3cn4ncccc4n3)cc2)C1=O [amorphous material, 4-(4-(imidazo[1,2-b]pyridazin-2-ylmethoxy)phenyl)-2,2-dimethyl-5-(pyridin-4-yl)furan-3(2H)-one]
Form by XRPD after storage at elevated humidity ([1]; elevated humidity conditions, 24 h): All solids displayed Form 1 | Form on standing at room conditions ([1]; typically 25° C., 40% RH): converted to Form 1

CC1(C)OC(c2ccncc2)=C(c2ccc(OCc3cn4ncccc4n3)cc2)C1=O.Cc1ccc(S(=O)(=O)O)cc1.Cc1ccc(S(=O)(=O)O)cc1 [bis-tosylate]
Form change by XRPD during GVS [2]: no accompanying form change | GVS water uptake (% of mass) [2]: 3.1% | Form change on storage ([3]; 40° C./75% RH, one week): no form change | Solubility (mg mL free form equivalent) ([4]; pH point 1.2): 32.29 mg mL free form equivalent | pH of unfiltered saturated solution ([4]; pH point 1.2): 1.21 | Solubility (mg mL free form equivalent) ([4]; pH point 4.5): 0.05 mg mL free form equivalent | pH of unfiltered saturated solution ([4]; pH point 4.5): 4.52 | Solubility (mg mL free form equivalent) ([4]; pH point 7.4): 0.05 mg mL free form equivalent | pH of unfiltered saturated solution ([4]; pH point 7.4): 7.40 | Solubility (mg mL free form equivalent) ([4]; pH point unadjusted aqueous): 29.07 mg mL free form equivalent | pH of unfiltered saturated solution ([4]; pH point unadjusted aqueous): 2.00

CC1(C)OC(c2ccncc2)=C(c2ccc(OCc3cn4ncccc4n3)cc2)C1=O [Form 2, 4-(4-(imidazo[1,2-b]pyridazin-2-ylmethoxy)phenyl)-2,2-dimethyl-5-(pyridin-4-yl)furan-3(2H)-one]
Purity (area %) ([5]; 25° C./96% RH, Week 1): 99.3 area % | Purity (area %) ([5]; 25° C./96% RH, Week 2): 98.9 area % | Purity (area %) ([5]; 25° C./96% RH, Week 3): 98.9 area % | Purity (area %) ([5]; 25° C./96% RH, Week 4): 98.9 area % | Purity (area %) [5, 7]: 98.0* area % | Purity (area %) ([5]; 25° C./96% RH, Week 6): 98.9 area % | Stability to elevated humidity and air oxidation [5, 8]: No significant changes; also recorded: no significant degradation | Purity (area %) ([5]; 40° C./75% RH, Week 1): 99.5 area % | Purity (area %) ([5]; 40° C./75% RH, Week 2): 99.1 area % | Purity (area %) ([5]; 40° C./75% RH, Week 3): 99.2 area % | Purity (area %) ([5]; 40° C./75% RH, Week 4): 99.1 area % | Purity (area %) [5, 9]: 98.8* area % | Purity (area %) ([5]; 40° C./75% RH, Week 6): 98.9 area % | Purity (area %) ([5]; 60° C., Week 1): 98.9 area % | Purity (area %) ([5]; 60° C., Week 2): 99.1 area % | 1H-NMR ([5]; 60° C., Week 4): Very weak | Purity (area %) ([5]; 60° C., Week 4): 99.0 area % | Purity (area %) [5, 10]: 98.6* area % | Purity (area %) ([5]; 60° C., Week 6): 99.0 area % | Purity (area %) ([5]; Room conditions, Week 1): 99.2 area % | Purity (area %) ([5]; Room conditions, Week 2): 98.6 area % | Purity (area %) ([5]; Room conditions, Week 4): 98.6 area % | Purity (area %) [5, 11]: 98.2* area % | Purity (area %) ([5]; Room conditions, Week 6): 98.2 area % | Stability at 60° C. in contact with air ([5]; after 6 weeks, XRPD and HPLC): No significant changes by XRPD or HPLC analyses after | Stability at room conditions (25° C. in contact with air) ([5]; after 6 weeks, XRPD and HPLC): No significant changes by XRPD or HPLC analyses after | Stability at 25° C./96% RH ([5]; after 6 weeks, XRPD and purity): No significant changes by XRPD or purity after 6 weeks | Stability at 40° C./75% RH ([5]; after 6 weeks, XRPD and purity): No significant changes by XRPD or purity after 6 weeks | Stability to humidity ([5]; after 6 weeks): No changes observed at elevated | Solubility (volumes) ([6]; BuOAc, 50 volumes): Almost | Solubility (volumes) ([6]; BuOAc, 100 volumes): Almost | Solubility (volumes) ([6]; Ethanol, 50 volumes): Almost | Solubility (volumes) ([6]; IPA, 50 volumes): Almost | Solubility (volumes) ([6]; IPA, 100 volumes): Almost | Solubility (volumes) ([6]; IPAc, 50 volumes): Almost | Solubility (volumes) ([6]; IPAc, 100 volumes): Almost | Solubility (volumes) ([6]; MEK, 20 volumes): Almost | Solubility (volumes) ([6]; MIBK, 50 volumes): Almost | Solubility (volumes) ([6]; MIBK, 100 volumes): Almost | Solubility (volumes) ([6]; MeCN/H2O, 10 volumes): Almost | Solubility (volumes) ([6]; Methanol, 10 volumes): Almost | Solubility (volumes) ([6]; Nitromethane, 10 volumes): Almost | Solubility (volumes) ([6]; Toluene, 50 volumes): Almost | pH of saturated unfiltered solution ([4]; DI water): 7.23 | solubility thermodynamic at 24 h ([4]; deionized water, water, Thermodynamic solubility, DI water, 24 hours): 40 µg/mL (≈ 97 µM) | thermodynamic aqueous solubility ([4]; deionized water, at pH 7.67 (Form 1), pH 7.23 (Form 2)): about 0.04 mg/ml | pH of saturated unfiltered solution ([4]; pH 1.2 buffer): 1.73 | solubility thermodynamic at 24 h ([4]; pH 1.2 buffer, pH 1.2, simulated gastric fluid, Thermodynamic solubility, 24 hours): 37800 µg/mL (≈ 91600 µM) | pH of saturated unfiltered solution ([4]; pH 4.5 buffer): 4.65 | solubility thermodynamic at 24 h ([4]; pH 4.5 buffer, pH 4.5, aqueous buffer, Thermodynamic solubility, 24 hours): 50 µg/mL (≈ 121 µM) | pH of saturated unfiltered solution ([4]; pH 7.4 buffer): 7.46 | Thermodynamic solubility ([4]; pH 7.4 buffer, 24 hours): 40 µg/mL

CC1(C)OC(c2ccncc2)=C(c2ccc(OCc3cn4ncccc4n3)cc2)C1=O [Form 1, 4-(4-(imidazo[1,2-b]pyridazin-2-ylmethoxy)phenyl)-2,2-dimethyl-5-(pyridin-4-yl)furan-3(2H)-one]
Form change by XRPD during GVS [2]: No form change | GVS water uptake (% of mass) [2]: 0.9% | Purity (area %) ([5]; 25° C./96% RH, Week 1): 96.6 area % | Purity (area %) ([5]; 25° C./96% RH, Week 2): 95.5 area % | Purity (area %) ([5]; 25° C./96% RH, Week 3): 96.5 area % | Purity (area %) ([5]; 25° C./96% RH, Week 4): 95.9 area % | Purity (area %) [5, 7]: 91.8* area % | Purity (area %) ([5]; 25° C./96% RH, Week 6): 95.5 area % | Stability to elevated humidity and air oxidation [5, 8]: No significant changes; also recorded: no significant degradation | Purity (area %) ([5]; 40° C./75% RH, Week 1): 96.9 area % | Purity (area %) ([5]; 40° C./75% RH, Week 2): 96.3 area % | Purity (area %) ([5]; 40° C./75% RH, Week 3): 96.5 area % | Purity (area %) ([5]; 40° C./75% RH, Week 4): 95.6 area % | Purity (area %) [5, 9]: 95.6* area % | Purity (area %) ([5]; 40° C./75% RH, Week 6): 96.8 area % | Changes after storage at 60° C. ([5]; 60° C., 4 weeks): no significant changes | Purity (area %) ([5]; 60° C., Week 1): 96.8 area % | Purity (area %) ([5]; 60° C., Week 2): 95.2 area % | Purity (area %) ([5]; 60° C., Week 3): 95.5 area % | Purity (area %) ([5]; 60° C., Week 4): 94.8 area % | Purity (area %) [5, 10]: 96.0* area % | Purity (area %) ([5]; 60° C., Week 6): 95.9 area % | Changes by 1H-NMR or HPLC after storage at 60° C. ([5]; 60° C., six weeks): no significant changes | Purity (area %) ([5]; Room conditions, Week 1): 96.5 area % | Purity (area %) ([5]; Room conditions, Week 2): 94.9 area % | Purity (area %) ([5]; Room conditions, Week 3): 96.6 area % | Purity (area %) ([5]; Room conditions, Week 4): 96.0 area % | Purity (area %) [5, 11]: 95.5* area % | Purity (area %) ([5]; Room conditions, Week 6): 95.9 area % | Stability to humidity ([5]; after 6 weeks): No changes observed at elevated | Change in XRPD pattern on storage ([3]; 25° C./92% RH): no significant change in the XRPD pattern | Change in XRPD pattern on storage ([3]; 40° C./75% RH): no significant change in the XRPD pattern | Solubility (volumes) ([6]; MeCN/H2O, 20 volumes): Almost | pH of saturated unfiltered solution ([4]; DI water): 7.67 | Thermodynamic solubility ([4]; DI water, 24 hours): 60 µg/mL | solubility thermodynamic at 24 h ([4]; deionized water, water, thermodynamic aqueous solubility, at pH 7.67 (Form 1), pH 7.23 (Form 2)): ~60 µg/mL (≈ 145 µM) | pH of saturated unfiltered solution ([4]; pH 1.2 buffer): 1.40 | Thermodynamic solubility ([4]; pH 1.2 buffer, 24 hours): 32000 µg/mL | pH of saturated unfiltered solution ([4]; pH 4.5 buffer): 4.67 | Thermodynamic solubility ([4]; pH 4.5 buffer, 24 hours): 60 µg/mL | pH of saturated unfiltered solution ([4]; pH 7.4 buffer): 7.46 | solubility thermodynamic at 24 h ([4]; pH 7.4 buffer, pH 7.4, aqueous buffer, Thermodynamic solubility, 24 hours): 50 µg/mL (≈ 121 µM)
